{"source": "patent US12281363B2", "about": "“Methods for detecting antiviral-drug resistant virus” (Secretary of State for Health and Social Care, priority 2018, dated 2025)", "tested_on": "HSV-1", "experiment": "Plaque reduction assay, HSV-1 clinical isolates on Vero cells", "type": "cell-based", "settings": "Human alphaherpesvirus 1, Vero", "excerpt": "Viral isolates were used to infect a sub-confluent monolayer of Vero cells at a concentration of 75 or 50 plaque forming units (PFU) per well for HSV-1 and HSV-2, respectively. […] CMC medium typically used to create a semisolid interface and prevents indiscrimate viral spreading. Other materials (e.g. agar) may also be used to create this interface.\nCells were fixed with 10% formalin and stained with crystal violet before enumeration of the plaques (microscopic observation or use of fluorescent antibodies for detection is also suitable). The data obtained from these experiments were then expressed as percent inhibition of viral infectivity relative to the no drug control.\nDefinitions of phenotypic drug susceptibility classification as sensitive or resistant were as follows: ACV, <3 μM or >40 μM; PCV, <10 μM or >40 μM; CDV, <24 μM or >30 μM; FOS, <250 μM or >400 μM; and ACV, <6.5 μM or >40 μM; PCV, <38 μM or >40 μM; FOS, <250 μM or >400 μM for HSV-1 and HSV-2, respectively. Any IC50 values falling in between these sensitive and resistant cut-offs were reported as intermediate resistance.\nThe phenotype (i.e. reactivity to a drug) of the virus was characterised by the plaque reduction assay as described above.", "note": "Read-outs that look alike come from different tables or passages of the source."}
{"smiles": "Nc1ccn(C[C@@H](CO)OCP(=O)(O)O)c(=O)n1", "note": "[Cidofovir, cidofovir]", "values": [{"measurement": "IC50", "setting": "isolate HPG032, HSV-1 TK 183* (437_438insA), read-out: Drug susceptibility Cidofovir (CDV)", "result": "< 24", "unit": "µM"}, {"measurement": "IC50", "setting": "isolate HPG033, HSV-1 TK I358L (1072A>C), also TK T287M, read-out: Drug susceptibility (IC50 value)", "result": 15, "unit": "µM"}, {"measurement": "IC50", "setting": "isolate HPG033, HSV-1 TK I358L (1072A>C), also TK T287M, read-out: Drug susceptibility Cidofovir (CDV)", "result": "< 24", "unit": "µM"}, {"measurement": "IC50", "setting": "isolate HPG033, HSV-1 pol N1046T (3137A>C), also TK T287M, pol A1169T, read-out: Drug susceptibility (IC50 value)", "result": 15, "unit": "µM"}, {"measurement": "IC50", "setting": "isolate HPG033, HSV-1 pol N1046T (3137A>C), also TK T287M, pol A1169T, read-out: Drug susceptibility Cidofovir (CDV)", "result": "< 24", "unit": "µM"}, {"measurement": "IC50", "setting": "isolate HPG035, HSV-1 pol S239L (716C>T), also pol S724N, read-out: Drug susceptibility (IC50 value)", "result": 39.6, "unit": "µM"}, {"measurement": "IC50", "setting": "isolate HPG035, HSV-1 pol S239L (716C>T), also pol S724N, read-out: Drug susceptibility Cidofovir (CDV)", "result": "> 30", "unit": "µM"}, {"measurement": "IC50", "setting": "isolate HPG037, HSV-1 TK L69M (205>A), also TK Y239H, read-out: Drug susceptibility Cidofovir (CDV)", "result": "< 24", "unit": "µM"}, {"measurement": "IC50", "setting": "isolate HPG037, HSV-1 TK R256W (766C>T), read-out: Drug susceptibility (IC50 value)", "result": 4.39, "unit": "µM"}, {"measurement": "IC50", "setting": "isolate HPG037, HSV-1 TK R256W (766C>T), read-out: Drug susceptibility Cidofovir (CDV)", "result": "< 24", "unit": "µM"}, {"measurement": "IC50", "setting": "isolate HPG037, HSV-1 TK Y239H (715T>C), read-out: Drug susceptibility (IC50 value)", "result": 4.39, "unit": "µM"}, {"measurement": "IC50", "setting": "isolate HPG037, HSV-1 TK Y239H (715T>C), read-out: Drug susceptibility Cidofovir (CDV)", "result": "< 24", "unit": "µM"}, {"measurement": "IC50", "setting": "isolate HPG039, HSV-1 TK 85* or H58fs (169delC, 170delC, 171delC, or 172delC), read-out: Drug susceptibility (IC50 value)", "result": 2.97, "unit": "µM"}, {"measurement": "IC50", "setting": "isolate HPG039, HSV-1 TK 85* or H58fs (169delC, 170delC, 171delC, or 172delC), read-out: Drug susceptibility Cidofovir (CDV)", "result": "< 24", "unit": "µM"}, {"measurement": "IC50", "setting": "isolate HPG040, HSV-1 pol S911N (2732G>A), also TK deletion (C) nt 896-900, pol A1169T, read-out: Drug susceptibility (IC50 value)", "result": 11.3, "unit": "µM"}, {"measurement": "IC50", "setting": "isolate HPG040, HSV-1 pol S911N (2732G>A), also TK deletion (C) nt 896-900, pol A1169T, read-out: Drug susceptibility Cidofovir (CDV)", "result": "< 24", "unit": "µM"}, {"measurement": "IC50", "setting": "isolate HPG041, HSV-1 pol S911N (2732G>A), also pol A1169T, read-out: Drug susceptibility (IC50 value)", "result": 18, "unit": "µM"}, {"measurement": "IC50", "setting": "isolate HPG041, HSV-1 pol S911N (2732G>A), also pol A1169T, read-out: Drug susceptibility Cidofovir (CDV)", "result": "< 24", "unit": "µM"}, {"measurement": "IC50", "setting": "isolate HPG042, HSV-1 pol A972V (2915C>T), also TK deletion (C) nt 881-885, pol A1169T, read-out: Drug susceptibility (IC50 value)", "result": "< 1.56", "unit": "µM"}, {"measurement": "IC50", "setting": "isolate HPG042, HSV-1 pol A972V (2915C>T), also TK deletion (C) nt 881-885, pol A1169T, read-out: Drug susceptibility Cidofovir (CDV)", "result": "< 24", "unit": "µM"}, {"measurement": "IC50", "setting": "isolate HPG042, HSV-1 pol G22R (64G>A), also TK deletion (C) nt 881-885, pol A1169T, read-out: Drug susceptibility (IC50 value)", "result": "< 1.56", "unit": "µM"}, {"measurement": "IC50", "setting": "isolate HPG042, HSV-1 pol G22R (64G>A), also TK deletion (C) nt 881-885, pol A1169T, read-out: Drug susceptibility Cidofovir (CDV)", "result": "< 24", "unit": "µM"}, {"measurement": "IC50", "setting": "isolate HPG043, HSV-1 TK 183* (437_438insA), read-out: Drug susceptibility (IC50 value)", "result": 1.65, "unit": "µM"}, {"measurement": "IC50", "setting": "isolate HPG043, HSV-1 TK 183* (437_438insA), read-out: Drug susceptibility Cidofovir (CDV)", "result": "< 24", "unit": "µM"}, {"measurement": "IC50", "setting": "isolate HPG045, HSV-1 TK L49R (146T>G), read-out: Drug susceptibility (IC50 value)", "result": "< 1.56", "unit": "µM"}, {"measurement": "IC50", "setting": "isolate HPG045, HSV-1 TK L49R (146T>G), read-out: Drug susceptibility Cidofovir (CDV)", "result": "< 24", "unit": "µM"}, {"measurement": "IC50", "setting": "isolate HPG045, HSV-1 pol L419I (1255C>A), also TK L49R, pol A1169T, read-out: Drug susceptibility (IC50 value)", "result": "< 1.56", "unit": "µM"}, {"measurement": "IC50", "setting": "isolate HPG045, HSV-1 pol L419I (1255C>A), also TK L49R, pol A1169T, read-out: Drug susceptibility Cidofovir (CDV)", "result": "< 24", "unit": "µM"}, {"measurement": "IC50", "setting": "isolate HPG046, HSV-1 TK I166N (497T>A), read-out: Drug susceptibility (IC50 value)", "result": 2.1, "unit": "µM"}, {"measurement": "IC50", "setting": "isolate HPG046, HSV-1 TK I166N (497T>A), read-out: Drug susceptibility Cidofovir (CDV)", "result": "< 24", "unit": "µM"}, {"measurement": "IC50", "setting": "isolate HPG047, HSV-1 pol E680 (2039A>C), also TK deletion (C) nt 548-553, pol A1169T, read-out: Drug susceptibility Cidofovir (CDV)", "result": "< 24", "unit": "µM"}, {"measurement": "IC50", "setting": "isolate HPG051, HSV-1 pol D83A (248A>C), also TK R176stop, read-out: Drug susceptibility (IC50 value)", "result": 4.94, "unit": "µM"}, {"measurement": "IC50", "setting": "isolate HPG051, HSV-1 pol D83A (248A>C), also TK R176stop, read-out: Drug susceptibility Cidofovir (CDV)", "result": "< 24", "unit": "µM"}, {"measurement": "IC50", "setting": "isolate HPG052, HSV-1 TK Q34* (100C>T), read-out: Drug susceptibility (IC50 value)", "result": 4.77, "unit": "µM"}, {"measurement": "IC50", "setting": "isolate HPG052, HSV-1 TK Q34* (100C>T), read-out: Drug susceptibility Cidofovir (CDV)", "result": "< 24", "unit": "µM"}, {"measurement": "IC50", "setting": "isolate HPG053, HSV-1 pol L802R + A834S (2405T>G, 2500G>T), also TK R176W, read-out: Drug susceptibility Cidofovir (CDV)", "result": "< 24", "unit": "µM"}, {"measurement": "IC50", "setting": "isolate HPG053, HSV-1 pol S911N (2732G>A), also TK R176W, pol A1169T, read-out: Drug susceptibility (IC50 value)", "result": 7.72, "unit": "µM"}, {"measurement": "IC50", "setting": "isolate HPG053, HSV-1 pol S911N (2732G>A), also TK R176W, pol A1169T, read-out: Drug susceptibility Cidofovir (CDV)", "result": "< 24", "unit": "µM"}, {"measurement": "IC50", "setting": "isolate HPG054, HSV-1 pol E992K (2974G>A), also TK insert (G) nt 430-436, pol A1169T, read-out: Drug susceptibility (IC50 value)", "result": 3.85, "unit": "µM"}, {"measurement": "IC50", "setting": "isolate HPG054, HSV-1 pol E992K (2974G>A), also TK insert (G) nt 430-436, pol A1169T, read-out: Drug susceptibility Cidofovir (CDV)", "result": "< 24", "unit": "µM"}, {"measurement": "IC50", "setting": "isolate HPG055, HSV-1 TK V204G (611T>G), also pol A1169AT, read-out: Drug susceptibility (IC50 value)", "result": "< 1.56", "unit": "µM"}, {"measurement": "IC50", "setting": "isolate HPG055, HSV-1 TK V204G (611T>G), also pol A1169AT, read-out: Drug susceptibility Cidofovir (CDV)", "result": "< 24", "unit": "µM"}, {"measurement": "IC50", "setting": "read-out: Drug susceptibility (IC50 value), isolate HPG005, HSV-1 TK A192T (574G>A)", "result": 2.21, "unit": "µM"}, {"measurement": "IC50", "setting": "read-out: Drug susceptibility (IC50 value), isolate HPG006, HSV-1 pol G121S (361G>A), also a TK resistance mutation (footnote a)", "result": 6.14, "unit": "µM"}, {"measurement": "IC50", "setting": "read-out: Drug susceptibility (IC50 value), isolate HPG012, HSV-1 pol G985E (2954G>A), also TK A93V", "result": 2.84, "unit": "µM"}, {"measurement": "IC50", "setting": "read-out: Drug susceptibility (IC50 value), isolate HPG016, HSV-1 pol A1169T (3505G>A)", "result": 16.5, "unit": "µM"}, {"measurement": "IC50", "setting": "read-out: Drug susceptibility (IC50 value), isolate HPG037, HSV-1 TK L69M (205>A), also TK Y239H", "result": 4.39, "unit": "µM"}, {"measurement": "IC50", "setting": "read-out: Drug susceptibility (IC50 value), isolate HPG042, HSV-1 TK frameshift (881delC to 885delC)", "result": "< 1.56", "unit": "µM"}, {"measurement": "IC50", "setting": "read-out: Drug susceptibility (IC50 value), isolate HPG047, HSV-1 pol E680 (2039A>C), also TK deletion (C) nt 548-553, pol A1169T", "result": 2.88, "unit": "µM"}, {"measurement": "IC50", "setting": "read-out: Drug susceptibility Cidofovir (CDV), isolate HPG005, HSV-1 TK A192T (574G>A)", "result": "< 24", "unit": "µM"}, {"measurement": "IC50", "setting": "read-out: Drug susceptibility Cidofovir (CDV), isolate HPG006, HSV-1 pol G121S (361G>A), also a TK resistance mutation (footnote a)", "result": "< 24", "unit": "µM"}, {"measurement": "IC50", "setting": "read-out: Drug susceptibility Cidofovir (CDV), isolate HPG012, HSV-1 pol G985E (2954G>A), also TK A93V", "result": "< 24", "unit": "µM"}, {"measurement": "IC50", "setting": "read-out: Drug susceptibility Cidofovir (CDV), isolate HPG016, HSV-1 pol A1169T (3505G>A)", "result": "< 24", "unit": "µM"}, {"measurement": "IC50", "setting": "read-out: Drug susceptibility Cidofovir (CDV), isolate HPG042, HSV-1 TK frameshift (881delC to 885delC)", "result": "< 24", "unit": "µM"}]}
